Test results from ChEMBL document CHEMBL1201862, “PubChem BioAssay data set” (2004).
Active and inactive are the calls of the source.

Experiments:
Cytochrome P450 3A4 = Cytochrome P450 3A4 (Homo sapiens, UniProt P08684);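 further: CYP3A4 tested as one member of a cytochrome P450 panel screen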
Cytochrome P450 2C9 = Cytochrome P450 2C9 (Homo sapiens, UniProt P11712)
[1] = biological target: G-protein coupled receptor 55 (Homo sapiens, UniProt Q9Y2T6); assay: GPR55 antagonists blocking LPI-driven arrestin recruitment, primary screen, imaging, U2OS, beta-arrestin-GFP, LPI agonist (AID 2013); type: functional;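 further: antagonist potency measured as reduced agonist-driven arrestin aggregation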
Sequence of G-protein coupled receptor 55 (Q9Y2T6 whole entry): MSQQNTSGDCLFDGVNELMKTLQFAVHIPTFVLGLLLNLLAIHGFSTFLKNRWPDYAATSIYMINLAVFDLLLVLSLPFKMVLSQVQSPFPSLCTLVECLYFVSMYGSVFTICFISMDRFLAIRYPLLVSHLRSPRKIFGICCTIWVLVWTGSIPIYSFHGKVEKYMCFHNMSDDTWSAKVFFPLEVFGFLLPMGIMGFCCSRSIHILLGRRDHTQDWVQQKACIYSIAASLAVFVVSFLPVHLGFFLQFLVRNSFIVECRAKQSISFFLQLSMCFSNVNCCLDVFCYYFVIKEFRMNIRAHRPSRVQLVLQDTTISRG

[2] = biological target: T1, High affinity choline transporter 1 (Homo sapiens, UniProt Q9GZV3); assay: CHT inhibitors, dose response, cell-based, 5-point CRC, membrane potential dye (AID 504840); type: functional
T1 sequence (Q9GZV3 whole entry): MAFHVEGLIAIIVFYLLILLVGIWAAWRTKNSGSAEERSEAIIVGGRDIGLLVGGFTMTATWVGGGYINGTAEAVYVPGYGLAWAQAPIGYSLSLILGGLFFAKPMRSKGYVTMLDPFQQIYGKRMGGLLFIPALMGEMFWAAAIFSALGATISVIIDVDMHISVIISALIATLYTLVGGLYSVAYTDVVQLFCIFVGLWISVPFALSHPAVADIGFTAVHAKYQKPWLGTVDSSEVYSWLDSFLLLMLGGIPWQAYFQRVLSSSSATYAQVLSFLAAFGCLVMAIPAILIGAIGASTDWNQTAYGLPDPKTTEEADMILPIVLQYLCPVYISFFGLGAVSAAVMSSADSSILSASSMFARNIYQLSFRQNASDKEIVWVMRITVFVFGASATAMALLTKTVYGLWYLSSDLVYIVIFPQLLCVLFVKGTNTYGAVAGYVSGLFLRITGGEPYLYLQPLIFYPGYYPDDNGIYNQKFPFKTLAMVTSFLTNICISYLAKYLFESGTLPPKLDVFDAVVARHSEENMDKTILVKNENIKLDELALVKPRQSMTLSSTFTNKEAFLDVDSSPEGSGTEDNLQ

Cytochrome P450 1A2 = biological target: T2, Cytochrome P450 1A2 (Homo sapiens, UniProt P05177);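 further: PubChem cytochrome P450 panel assay, CYP1A2 panel member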
T2 sequence (P05177 whole entry): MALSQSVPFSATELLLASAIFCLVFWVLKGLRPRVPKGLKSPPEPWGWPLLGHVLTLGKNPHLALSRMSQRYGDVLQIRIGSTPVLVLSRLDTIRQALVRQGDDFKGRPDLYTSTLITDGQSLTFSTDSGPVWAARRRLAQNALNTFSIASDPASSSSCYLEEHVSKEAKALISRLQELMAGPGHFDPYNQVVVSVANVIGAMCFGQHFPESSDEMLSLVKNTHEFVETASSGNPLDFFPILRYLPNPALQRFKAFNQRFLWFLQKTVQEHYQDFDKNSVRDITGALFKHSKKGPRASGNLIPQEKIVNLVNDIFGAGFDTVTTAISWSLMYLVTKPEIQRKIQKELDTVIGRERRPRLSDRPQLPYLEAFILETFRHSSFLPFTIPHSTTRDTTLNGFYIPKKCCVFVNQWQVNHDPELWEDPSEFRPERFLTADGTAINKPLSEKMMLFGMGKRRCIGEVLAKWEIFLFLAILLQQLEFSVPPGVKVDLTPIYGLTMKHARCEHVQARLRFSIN

[3] = biological target: Voltage-dependent T-type calcium channel subunit alpha-1H (Homo sapiens, UniProt O95180); type: functional;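 further: channel activity triggered by adding a high calcium stimulation buffer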
[4] = cytotoxicity toward NIH3T3 fibroblasts, dose response, counter-screen, cell-based, ATP luminescence, mouse fibroblasts (AID 2010); type: functional;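 further: cells exposed to compound for about 90 hours before reading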
[5] = inhibitors of intracellular T. cruzi replication, confirmation, NIH3T3 host cells, beta-gal luminescence (AID 2044); type: functional, cell-based;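 further: intracellular parasites grown in NIH/3T3 mouse fibroblasts as host cells; luminescent beta-galactosidase reporter signal from transgenic T. cruzi replicating inside host cells; inhibitors lower the luminescence signal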
[6] = biological target: T3, Replicative DNA helicase DnaB (Mycobacterium tuberculosis, UniProt P9WMR3); assay: DnaB intein splicing inhibitors, dose response, biochemical, cell-free fluorescence (AID 449749); type: functional
T3 sequence (P9WMR3 whole entry): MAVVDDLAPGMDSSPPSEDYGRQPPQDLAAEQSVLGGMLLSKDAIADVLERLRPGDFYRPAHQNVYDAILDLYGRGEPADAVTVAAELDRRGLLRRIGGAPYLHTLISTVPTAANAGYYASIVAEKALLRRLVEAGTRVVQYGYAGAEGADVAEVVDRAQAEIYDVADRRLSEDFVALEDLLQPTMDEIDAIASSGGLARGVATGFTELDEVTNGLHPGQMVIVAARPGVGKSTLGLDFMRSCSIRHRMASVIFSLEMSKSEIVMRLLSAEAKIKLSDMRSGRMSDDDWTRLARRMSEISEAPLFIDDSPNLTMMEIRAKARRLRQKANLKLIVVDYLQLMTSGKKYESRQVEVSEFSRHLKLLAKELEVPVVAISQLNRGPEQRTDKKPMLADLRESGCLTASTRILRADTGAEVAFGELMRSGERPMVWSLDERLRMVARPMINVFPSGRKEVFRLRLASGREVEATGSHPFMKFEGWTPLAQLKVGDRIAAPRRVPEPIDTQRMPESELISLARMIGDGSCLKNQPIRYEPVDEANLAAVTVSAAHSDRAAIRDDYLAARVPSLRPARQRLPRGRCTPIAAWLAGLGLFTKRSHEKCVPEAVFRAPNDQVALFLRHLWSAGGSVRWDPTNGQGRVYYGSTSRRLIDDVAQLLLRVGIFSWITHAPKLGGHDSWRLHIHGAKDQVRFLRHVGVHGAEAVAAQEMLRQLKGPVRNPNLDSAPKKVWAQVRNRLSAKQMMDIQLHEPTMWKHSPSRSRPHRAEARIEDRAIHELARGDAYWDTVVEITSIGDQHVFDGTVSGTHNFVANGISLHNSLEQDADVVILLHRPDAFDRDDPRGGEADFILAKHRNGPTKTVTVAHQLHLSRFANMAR

Protein RecA = biological target: T4, Protein RecA (Mycobacterium tuberculosis, UniProt P9WHJ3); assay: Fluorescence Cell-Free Homogeneous Dose Retest to Identify Inhibitors of RecA-Intein Splicing Activity. [Related pubchem assays (depositor defined):AID2097, AID2223, AID489010, AID492950]; type: functional
T4 sequence (P9WHJ3 whole entry): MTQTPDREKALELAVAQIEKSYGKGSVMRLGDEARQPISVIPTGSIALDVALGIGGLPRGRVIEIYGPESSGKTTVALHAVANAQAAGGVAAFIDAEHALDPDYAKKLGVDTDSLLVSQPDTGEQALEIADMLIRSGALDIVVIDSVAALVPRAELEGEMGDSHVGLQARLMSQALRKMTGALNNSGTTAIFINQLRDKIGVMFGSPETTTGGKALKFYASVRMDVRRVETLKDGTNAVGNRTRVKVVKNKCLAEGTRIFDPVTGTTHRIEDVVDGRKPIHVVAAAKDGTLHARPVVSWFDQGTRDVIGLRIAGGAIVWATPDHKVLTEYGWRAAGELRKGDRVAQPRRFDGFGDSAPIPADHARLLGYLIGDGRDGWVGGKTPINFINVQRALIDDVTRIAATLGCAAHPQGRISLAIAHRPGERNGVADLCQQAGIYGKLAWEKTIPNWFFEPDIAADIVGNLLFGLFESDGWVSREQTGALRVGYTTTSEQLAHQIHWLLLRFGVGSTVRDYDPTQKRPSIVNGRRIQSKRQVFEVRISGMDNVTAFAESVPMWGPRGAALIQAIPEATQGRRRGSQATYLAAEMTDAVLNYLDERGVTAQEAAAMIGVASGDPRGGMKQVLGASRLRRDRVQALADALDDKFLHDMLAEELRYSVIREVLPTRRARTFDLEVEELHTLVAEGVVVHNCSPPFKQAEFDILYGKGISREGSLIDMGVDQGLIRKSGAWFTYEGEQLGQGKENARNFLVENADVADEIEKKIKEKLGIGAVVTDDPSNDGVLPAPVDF

[7] = NIH-3T3 fibroblast cytotoxicity, dose response, cytotoxicity control, cell-based, fluorescence, Alamar Blue, secondary assay (AID 2327); type: functional;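 further: NIH-3T3 mouse fibroblasts cultured with fluconazole at 8 µg/mL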
[8] = C. albicans growth with fluconazole, confirmation, fluorescence, retest (AID 2467); type: functional, cell-based
Streptococcus = assay: Group A Streptococcus viability loss, dose response, counter-screen for streptokinase expression inhibitor project, luminescence, BacTiterGlo (AID 1915); type: functional, organism-based;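 further: potency for reduction of bacterial viability or growth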
[9] = biological target: ATP-dependent molecular chaperone HSP82 (Candida albicans (strain WO-1) (Yeast), UniProt C4YTQ8); assay: loss of DOC-induced GRE-beta-galactosidase reporter signal, dose response, Hsp90 inhibitor project, S. cerevisiae, luminescence (AID 2400); type: functional, cell-based;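 further: beta-galactosidase luminescence from glucocorticoid response element reporter as proxy for Hsp90 function; inhibitor potency where signal loss means Hsp90 inhibition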
Sequence of ATP-dependent molecular chaperone HSP82 (C4YTQ8 whole entry): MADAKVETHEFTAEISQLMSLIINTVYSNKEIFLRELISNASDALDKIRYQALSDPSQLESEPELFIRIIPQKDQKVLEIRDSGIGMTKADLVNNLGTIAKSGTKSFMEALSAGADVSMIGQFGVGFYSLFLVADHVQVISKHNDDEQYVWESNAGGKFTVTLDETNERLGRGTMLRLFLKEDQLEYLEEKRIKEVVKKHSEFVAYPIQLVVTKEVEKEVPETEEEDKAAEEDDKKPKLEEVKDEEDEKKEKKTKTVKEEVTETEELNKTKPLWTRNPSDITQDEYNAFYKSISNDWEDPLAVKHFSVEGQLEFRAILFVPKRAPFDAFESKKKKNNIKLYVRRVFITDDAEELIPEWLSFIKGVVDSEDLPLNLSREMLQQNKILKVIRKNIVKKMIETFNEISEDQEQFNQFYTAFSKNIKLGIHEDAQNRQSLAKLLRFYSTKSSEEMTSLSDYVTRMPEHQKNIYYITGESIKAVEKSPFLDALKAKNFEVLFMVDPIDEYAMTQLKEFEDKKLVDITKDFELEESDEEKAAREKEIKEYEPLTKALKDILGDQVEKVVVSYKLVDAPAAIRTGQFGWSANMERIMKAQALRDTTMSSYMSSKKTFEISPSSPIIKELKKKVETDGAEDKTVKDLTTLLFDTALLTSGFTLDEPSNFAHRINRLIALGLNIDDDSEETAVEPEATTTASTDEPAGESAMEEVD

[10] = biological target: T5, Serine/threonine-protein phosphatase (Candida dubliniensis (strain CD36 / CBS 7987 / NCPF 3949 / NRRLY-17841) (Yeast), UniProt B9W6M3); assay: calcineurin pathway inhibitors in yeast reporter, dose response, S. cerevisiae, CDRE-lacZ, luminescence, secondary (AID 2388); type: functional, cell-based;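 further: yeast reporter cells carrying a calcineurin-responsive lacZ construct stimulated with calcium chloride; luminescent beta-galactosidase reporter signal in whole cells rather than isolated phosphatase activity; potency for inhibition where a drop in reporter signal means calcineurin blockade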
T5 sequence (B9W6M3 whole entry): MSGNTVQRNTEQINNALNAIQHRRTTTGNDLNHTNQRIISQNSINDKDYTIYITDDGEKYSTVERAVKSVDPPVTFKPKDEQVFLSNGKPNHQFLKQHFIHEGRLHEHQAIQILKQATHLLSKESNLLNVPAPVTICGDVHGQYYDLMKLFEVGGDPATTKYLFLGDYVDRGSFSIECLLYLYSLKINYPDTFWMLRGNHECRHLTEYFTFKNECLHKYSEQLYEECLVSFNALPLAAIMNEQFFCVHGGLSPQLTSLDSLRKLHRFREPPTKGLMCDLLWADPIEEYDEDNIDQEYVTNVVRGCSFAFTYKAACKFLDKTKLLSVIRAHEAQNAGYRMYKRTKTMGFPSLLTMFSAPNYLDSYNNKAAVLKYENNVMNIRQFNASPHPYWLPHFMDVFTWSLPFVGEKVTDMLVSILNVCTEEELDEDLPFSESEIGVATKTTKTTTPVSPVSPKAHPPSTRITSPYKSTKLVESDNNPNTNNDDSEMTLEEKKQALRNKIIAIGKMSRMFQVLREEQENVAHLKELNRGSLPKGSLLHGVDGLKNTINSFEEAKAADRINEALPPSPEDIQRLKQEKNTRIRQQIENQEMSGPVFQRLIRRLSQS

[11] = tested on: Streptococcus sp. 'group A'; assay: growth inhibition of control SK(-) GAS strain, dose response, counter-screen for streptokinase expression inhibitor project, luminescence, kanamycin, BacTiterGlo, confirmation (AID 1900); type: functional, organism-based
HeLa = assay: HeLa cell cytotoxicity, dose response, cytotoxicity control for MITF activator project, CellTiter-Glo luminescence, cherry-pick samples (AID 540259); type: functional, cell-based; settings: Homo sapiens
Cytochrome P450 2C19 = Cytochrome P450 2C19 (Homo sapiens, UniProt P33261); assay: Cytochrome panel assay with activity outcomes. Panel member name: p450-cyp2c19 Compounds with AC50 equal or less than 10 uM are considered active; type: functional; settings: read-out: AC50
Sequence of Cytochrome P450 2C19 (P33261 whole entry): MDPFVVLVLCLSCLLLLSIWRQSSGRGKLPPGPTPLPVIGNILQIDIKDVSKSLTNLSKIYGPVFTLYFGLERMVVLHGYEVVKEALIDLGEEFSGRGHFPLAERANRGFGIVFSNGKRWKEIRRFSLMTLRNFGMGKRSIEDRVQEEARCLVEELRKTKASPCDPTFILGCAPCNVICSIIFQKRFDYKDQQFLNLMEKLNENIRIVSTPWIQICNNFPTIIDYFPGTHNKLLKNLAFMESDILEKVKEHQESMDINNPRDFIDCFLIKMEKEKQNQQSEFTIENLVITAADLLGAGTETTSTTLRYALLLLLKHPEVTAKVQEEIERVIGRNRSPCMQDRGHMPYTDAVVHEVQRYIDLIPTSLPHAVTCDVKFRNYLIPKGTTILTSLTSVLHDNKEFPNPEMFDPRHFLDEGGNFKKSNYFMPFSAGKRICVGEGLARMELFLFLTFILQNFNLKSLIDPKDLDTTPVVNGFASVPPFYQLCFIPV

Genome polyprotein = Genome polyprotein (dengue virus type 2, UniProt P29990); assay: Dengue-2 NS5 methyltransferase inhibitors, primary screen, biochemical, confirmation dose response (AID 588689); type: functional
Sequence of Genome polyprotein (P29990 2492-3391 limits assumed): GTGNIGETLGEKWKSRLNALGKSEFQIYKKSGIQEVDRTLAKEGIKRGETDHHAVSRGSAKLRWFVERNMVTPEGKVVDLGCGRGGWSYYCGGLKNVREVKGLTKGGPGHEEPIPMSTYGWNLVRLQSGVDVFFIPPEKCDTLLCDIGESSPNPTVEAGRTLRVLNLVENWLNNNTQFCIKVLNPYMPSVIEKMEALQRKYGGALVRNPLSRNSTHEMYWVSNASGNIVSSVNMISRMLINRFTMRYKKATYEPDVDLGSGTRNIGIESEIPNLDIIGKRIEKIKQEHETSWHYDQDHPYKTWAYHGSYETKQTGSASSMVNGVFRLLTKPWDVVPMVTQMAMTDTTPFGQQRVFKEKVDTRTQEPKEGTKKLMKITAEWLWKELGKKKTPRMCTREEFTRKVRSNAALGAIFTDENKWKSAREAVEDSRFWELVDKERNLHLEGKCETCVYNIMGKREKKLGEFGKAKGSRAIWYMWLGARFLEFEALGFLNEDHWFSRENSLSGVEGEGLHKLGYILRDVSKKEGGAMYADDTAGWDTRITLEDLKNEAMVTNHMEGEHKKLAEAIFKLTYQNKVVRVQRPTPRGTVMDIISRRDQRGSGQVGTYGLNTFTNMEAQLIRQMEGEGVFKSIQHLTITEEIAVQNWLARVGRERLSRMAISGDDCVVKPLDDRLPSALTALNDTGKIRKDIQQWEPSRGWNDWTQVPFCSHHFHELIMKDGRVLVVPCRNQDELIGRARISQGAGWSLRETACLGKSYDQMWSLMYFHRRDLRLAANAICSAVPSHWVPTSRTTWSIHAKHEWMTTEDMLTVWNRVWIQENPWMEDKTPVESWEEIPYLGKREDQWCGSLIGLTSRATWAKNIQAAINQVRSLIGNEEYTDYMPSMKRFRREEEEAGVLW

[12] = A cytotoxicity screen of small molecule inhibitors of the PhoP region in Salmonella typhi identified in the primary screen. [Related pubchem assays: 1850, 1864, 1985 ]; type: functional
[13] = Luminescence Cell-Based Dose Retest to Confirm Inhibitors of Cancer Stem Cells. [Related pubchem assays (depositor defined):AID2717, AID2721]; type: functional; settings: Homo sapiens

Sequence of Cytochrome P450 2C9 (P11712 whole entry): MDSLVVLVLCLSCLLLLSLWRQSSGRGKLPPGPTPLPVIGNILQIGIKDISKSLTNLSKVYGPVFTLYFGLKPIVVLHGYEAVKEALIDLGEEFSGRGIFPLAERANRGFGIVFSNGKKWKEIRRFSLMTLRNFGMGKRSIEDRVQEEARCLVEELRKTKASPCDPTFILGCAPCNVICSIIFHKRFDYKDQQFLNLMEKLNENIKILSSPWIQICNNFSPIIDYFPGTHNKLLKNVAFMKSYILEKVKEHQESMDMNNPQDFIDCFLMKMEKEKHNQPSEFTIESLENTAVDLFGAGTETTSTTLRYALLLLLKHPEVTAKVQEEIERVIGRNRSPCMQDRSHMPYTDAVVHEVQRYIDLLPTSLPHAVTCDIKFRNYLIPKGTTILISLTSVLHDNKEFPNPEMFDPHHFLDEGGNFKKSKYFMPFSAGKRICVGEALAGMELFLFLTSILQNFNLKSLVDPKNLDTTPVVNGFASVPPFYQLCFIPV
Sequence of Cytochrome P450 3A4 (P08684 whole entry): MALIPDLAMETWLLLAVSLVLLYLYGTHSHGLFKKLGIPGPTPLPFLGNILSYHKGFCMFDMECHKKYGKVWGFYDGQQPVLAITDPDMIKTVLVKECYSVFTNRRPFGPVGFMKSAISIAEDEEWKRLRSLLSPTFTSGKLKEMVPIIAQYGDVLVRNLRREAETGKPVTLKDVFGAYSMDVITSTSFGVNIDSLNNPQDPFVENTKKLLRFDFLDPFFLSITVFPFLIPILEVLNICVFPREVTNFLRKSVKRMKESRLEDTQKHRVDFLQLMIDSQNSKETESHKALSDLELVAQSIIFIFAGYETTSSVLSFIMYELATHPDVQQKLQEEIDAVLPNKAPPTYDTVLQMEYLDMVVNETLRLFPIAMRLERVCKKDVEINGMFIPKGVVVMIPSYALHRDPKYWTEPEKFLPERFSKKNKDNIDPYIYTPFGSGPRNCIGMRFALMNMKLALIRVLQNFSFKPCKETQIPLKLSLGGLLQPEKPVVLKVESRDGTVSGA

Compound: CN(C)c1ncc2nc(-c3cc(F)cc(F)c3)c(=O)n(Cc3ccc(F)cc3)c2n1
- AC50 (Cytochrome P450 3A4): 31.6 µM (inconclusive)
- AC50 (Cytochrome P450 2C9): inconclusive

Compound: O=C(c1ccccc1)N1N=C(c2cccs2)CC1c1ccccc1O (centres undefined)
- IC50 [1]: 2.72 µM (active)

Compound: O=C(NCCCN1CCOCC1)c1ccc2c(=O)n(-c3ccc(F)c(Cl)c3)c(=S)[nH]c2c1
- IC50 [2]: 11.5 µM (active)

Compound: COc1ccc(OC)c(NC(=O)CSCc2cnn(-c3ccccc3)c2-n2cccc2)c1
- AC50 (Cytochrome P450 1A2): 25.1 µM (inconclusive)
- EC50 [3]: 4.18 µM (active)
- AC50 (Cytochrome P450 2C9): inconclusive

Compound: CC(C)(C)n1nnnc1C(c1cccs1)N(Cc1cccnc1)Cc1ccccc1Cl (centres undefined)
- EC50 [4]: 15.1 µM (active)
- IC50 [1]: 3.57 µM (active)
- EC50 [5]: 0.684 µM (active)
- AC50 [6]: > 120 µM (inactive)
- EC50 (Protein RecA): 59 µM (active)

Compound: Cc1ccc(-n2cc(CN3CCN(Cc4nccn4C)CC3)c(-c3ccc(F)cc3)n2)cc1
- IC50 [2]: 10.1 µM (active)

Compound: CCCC(=O)Nc1cccc(NC(=O)c2ccc([N+](=O)[O-])cc2Cl)c1
- IC50 [2]: 15.1 µM (active)

Compound: CCOc1ccc(N=Nc2ccc(O)c3ncccc23)cc1
- EC50 [7]: > 150 µM (inconclusive)
- EC50 [8]: 1.11 µM (active)
- EC50 [4]: 8.06 µM (active)
- EC50 (Streptococcus): 1.45 µM (active)
- EC50 [9]: > 150 µM (inactive)
- EC50 [10]: > 180 µM (inactive)
- EC50 [11]: 0.19 µM (active)
- EC50 [5]: 0.65 µM (active)

Compound: Cc1cc(O)c2cc(Cl)ccc2n1
- AC50 (Cytochrome P450 2C9): inconclusive

Compound: COc1ccc2c(c1)CCc1c(C(=O)NCC(C)C)noc1-2
- AC50 (HeLa): 55.1 µM (active)

Compound: Cc1ccc(Nc2cc(C)nc(-c3ccccc3)n2)cc1
- AC50 (HeLa): 36.7 µM (active)

Compound: Cn1c(=O)oc2cc(S(=O)(=O)NCCC(=O)N3CC=C(c4ccccc4)CC3)ccc21
- AC50 (Cytochrome P450 1A2): 31.6 µM (inconclusive)
- AC50 (Cytochrome P450 2C9): inconclusive

Compound: CCOCCCN1C(=O)CN(C2CCCCCC2)C(=O)C1c1ccc(OC)cc1 (centres undefined)
- AC50 (Cytochrome P450 2C19): 25.1 µM (inconclusive)
- AC50 (Cytochrome P450 2C9): inconclusive

Compound: CSc1nnc(-c2sccc2OCc2ccccc2)n1C
- IC50 [1]: 2.71 µM (active)

Compound: O=C(NC1CC1)c1sc2cc(Cl)ccc2c1Cl
- AC50 (HeLa): 69.3 µM (active)

Compound: CNC(=O)c1ccc(-c2cc3onc(-c4ccccc4)c3c(=O)n2C)cc1
- AC50 (HeLa): 44.9 µM (active)

Compound: CC1=NC(C)(C)Cc2cc(C)c(C)cc21
- IC50 [2]: 13.2 µM (active)

Compound: Cc1[nH]n(-c2ccccc2)c(=O)c1C(c1cccc([N+](=O)[O-])c1O)c1c(C)[nH]n(-c2ccccc2)c1=O
- IC50 (Genome polyprotein): 31.6 µM (active)
- EC50 [12]: > 50 µM (active)
- AC50 [6]: 1.15 µM (active)
- EC50 (Protein RecA): 0.931 µM (active)

Compound: N#Cc1c(/N=C/N2CCCC2)oc(-c2ccccc2)c1-c1ccccc1
- IC50 [1]: 0.558 µM (active)
- AC50 [13]: 1.67 µM (active)
